Common to all, as to type: in vivo
In assay [1] the test system is rats subjected to FPI (TBI model). Put plainly: Volume of cell death 72 hours after TBI (rat FPI). Particulars: 6 mg/kg IV 30 minutes prior to TBI; measured 72 hours later. The method, then:
(§1) Craniotomy and lateral fluid percussion injury (FPI) were performed using a previously validated and published procedure. Farias S, et al. J. Neurotraum, 26, 1977-1986, 2009; Frey L. C. et al. J. Neurosci. Methods 177, 267-272, 2009. Throughout the specification animals subjected to this protocol are referred to as having a TBI since this treatment protocol is a TBI model. Briefly, rats were anesthetized with 3-5% isoflurane, isosol, VEDCO Inc., St. Joseph, Mo., via nose cone and mounted in a stereotaxic head frame. A 3 millimeter (mm) craniotomy was created and centered at 3 mm caudal to bregma and 3.5 mm left of the sagittal suture, keeping the exposed dura intact. One steel support screw was embedded in the skull on the contralateral side. A Luer-Lock hub with an inside diameter of 3.5 mm was centered over the craniotomy and bonded to the skull with cyanoacrylate adhesive and capped. Dental acrylic, Snap, Parka, Inc., Edgewood, N.J., was poured around the huh and screw. After the acrylic hardened antibiotic ointment was applied around the cap and the animals were returned to their cages. […] Moistened food pellets were provided after injury, and all animals were monitored daily for well-being and weight changes. […]
Rats were administered a single-dose of the FLAP inhibitor MK-886, 6 mg/kg IV by tail vein, 30 minutes prior to TBI. […] Results are expressed as the average±SEM. […]

For assay [2] the test system is unchanged. Put plainly: Evans Blue extravasation, BBB permeability in hippocampus (rat FPI). Particulars: 15 minutes after TBI; slices five hours post-injury. The method, then:
as §1, with “intact.” for “intact. One steel support screw was embedded in the skull on the contralateral side. A Luer-Lock hub with an inside diameter of 3.5 mm was centered over the craniotomy and bonded to the skull with cyanoacrylate adhesive and capped. Dental acrylic, Snap, Parka, Inc., Edgewood, N.J., was poured around the huh and screw. After the acrylic hardened antibiotic ointment was applied around the cap and the animals were returned to their cages.”
One hour prior to FPI, rats received a 5 ml intraperitoneal (IP) injection of Evans Blue (EB) solution, 2% w/v in saline. […] Images from each slice were stitched together using Fiji/ImageJ (NIH), and EB-positive cells in the hippocampal cell layers were quantified using the cell counter tool.
The inventors utilized Evans Blue (EB) fluorescence to assess BBB permeability in the rat FPI model. […] Fluorescence microscopy was used to image brain slices harvested five hours post-injury, taking advantage of EB's intrinsic fluorescent properties, excitation at 620 nm and emission at 680 nm. […]

Assay [3] has the same test system. In words: Gd-enhanced T1-weighted MRI, BBB disruption 72 hours after TBI (rat FPI). The method, then: Craniotomy and lateral fluid percussion injury (FPI) were performed using a previously validated and published procedure. Farias S, et al. J. Neurotraum, 26, 1977-1986, 2009; Frey L. C. et al. J. Neurosci. Methods 177, 267-272, 2009. Throughout the specification animals subjected to this protocol are referred to as having a TBI since this treatment protocol is a TBI model. Briefly, rats were anesthetized with 3-5% isoflurane, isosol, VEDCO Inc., St. Joseph, Mo., via nose cone and mounted in a stereotaxic head frame. A 3 millimeter (mm) craniotomy was created and centered at 3 mm caudal to bregma and 3.5 mm left of the sagittal suture, keeping the exposed dura intact. One steel support screw was embedded in the skull on the contralateral side. A Luer-Lock hub with an inside diameter of 3.5 mm was centered over the craniotomy and bonded to the skull with cyanoacrylate adhesive and capped. Dental acrylic, Snap, Parka, Inc., Edgewood, N.J., was poured around the huh and screw. After the acrylic hardened antibiotic ointment was applied around the cap and the animals were returned to their cages. The next day, approximately 15-20 hours later, animals were anesthetized with isoflurane in an induction chamber, immediately connected to the FPI apparatus, and received a 20 millisecond (ms) pulse of pressurized sterile saline at 2.7 atmospheres (atm) of pressure to simulate a moderate severity impact on the intact dural surface through the craniotomy before awakening from anesthesia. […] All animals received a subcutaneous injection of the analgesic, buprenorphine, 0.05 milligram/kilogram (mg/kg) Buprenex, prior to craniotomy, and subsequent injections every 12 hours for two days. Moistened food pellets were provided after injury, and all animals were monitored daily for well-being and weight changes. […]
The effect of leukotrienes on TBI-related BBB disruption was assessed using Gd-enhanced T1-weighted MRI 72 hours after TBI in rats. […]

On to `CC(C)c1ccc2c(c1)c(SC(C)(C)C)c(CC(C)(C)C(=O)O)n2Cc1ccc(Cl)cc1` [MK-886, 1-[(4-Chlorophenyl)methyl]-3-[(1,1-dimethylethyl)thio]-α,α-dimethyl-5-(1-methylethyl)-1H-Indole-2-propanoic acid], for which the “cell death induced by TBI” value in assay [1] is “significant reductions in cell death”. Further, the “number of EB-positive cells in the CA1 region” value in assay [2] was 69.25+/−36.82. The Gd extravasation result in assay [3] (15 min post-injury), in assay [3] (30 min pre-injury) and in assay [3] (60 min post-injury) was “no effect” throughout.
